Source: patent publication US20260216176A1, “USE OF PCLX-001 OR PCLX-002 AS A RADIOSENSITIZER” (ACYLEX PHARMACEUTICALS INC., priority 2023, published 2026)
Values joined by “and” are separate entries in the source; they are usually repeats but may differ in a detail not shown here. Equal values may be shown once. Read-outs that look alike come from different tables or passages of the source.

Assay: Plasma, brain and CSF pharmacokinetics and brain tissue accumulation in mice (LC-MS/MS)
Assay type: in vivo, male C57BL/6 mice

For Cc1c(N[S+](=O)(O)c2c(Cl)cc(-c3ccnc(N4CCNCC4)c3)cc2Cl)c(CC(C)C)nn1C [PCLX-001], the “Plasma Conc.” value (5 mg/kg oral, time point 0.00 h, individual animals) was 0.00 nM, the concentration at 8 h (5 mg/kg oral, time point 0.00 h, individual animals, read-out: Brain Conc.) was 0.00 nM and the concentration at 24 h (5 mg/kg oral, time point 0.00 h, individual animals, read-out: CSF Conc.) was 0.00 nM. The “Plasma Conc.” value (5 mg/kg oral, time point 0.25 h, individual animals) was 6762.56 nM and 8570.40 nM, the concentration at 8 h (5 mg/kg oral, time point 0.25 h, individual animals, read-out: Brain Conc.) was 73.74 nM and 86.13 nM and the concentration at 24 h (5 mg/kg oral, time point 0.25 h, individual animals, read-out: CSF Conc.) was 11.50 nM and 3.78 nM and 7.47 nM. The “Plasma Conc.” value (5 mg/kg oral, time point 0.50 h, individual animals) was 8294.21 nM and 6591.89 nM, the concentration at 8 h (5 mg/kg oral, time point 0.50 h, individual animals, read-out: Brain Conc.) was 122.31 nM and 138.42 nM and the concentration at 24 h (5 mg/kg oral, time point 0.50 h, individual animals, read-out: CSF Conc.) was 4.19 nM and 2.89 nM. The “Plasma Conc.” value (5 mg/kg oral, time point 1.00 h, individual animals) was 9051.65 nM and 8883.32 nM, the concentration at 8 h (5 mg/kg oral, time point 1.00 h, individual animals, read-out: Brain Conc.) was 54.48 nM and 64.47 nM and the concentration at 24 h (5 mg/kg oral, time point 1.00 h, individual animals, read-out: CSF Conc.) was 2.72 nM and 8.67 nM and 3.50 nM. The “Plasma Conc.” value (5 mg/kg oral, time point 2.00 h, individual animals) was 5724.05 nM and 5659.43 nM, the concentration at 8 h (5 mg/kg oral, time point 2.00 h, individual animals, read-out: Brain Conc.) was 185.79 nM and 81.69 nM and 204.51 nM and the concentration at 24 h (5 mg/kg oral, time point 2.00 h, individual animals, read-out: CSF Conc.) was 7.26 nM and 15.58 nM and 16.86 nM. For the same molecule, the “Plasma Conc.” value (5 mg/kg oral, time point 4.00 h, individual animals) was 13975.97 nM and 6234.47 nM and 11667.07 nM, the concentration at 8 h (5 mg/kg oral, time point 4.00 h, individual animals, read-out: Brain Conc.) was 243.03 nM and 114.75 nM and 171.09 nM and the concentration at 24 h (5 mg/kg oral, time point 4.00 h, individual animals, read-out: CSF Conc.) was 15.26 nM and 6.67 nM and 87.98 nM. For the same molecule, the “Plasma Conc.” value (5 mg/kg oral, time point 8.00 h, individual animals) was 2821.68 nM and 6573.92 nM and 6832.35 nM, the concentration at 8 h (5 mg/kg oral, time point 8.00 h, individual animals, read-out: Brain Conc.) was 135.06 nM and 148.56 nM and the concentration at 24 h (5 mg/kg oral, time point 8.00 h, individual animals, read-out: CSF Conc.) was 30.28 nM and 5.97 nM and 7.19 nM. For the same molecule, the “Plasma Conc.” value (5 mg/kg oral, time point 24.00 h, individual animals) was 6.38 nM and 4.10 nM, the concentration at 8 h (5 mg/kg oral, time point 24.00 h, individual animals, read-out: Brain Conc.) was 0.00 nM and 8.13 nM and 12.81 nM and the concentration at 24 h (5 mg/kg oral, time point 24.00 h, individual animals, read-out: CSF Conc.) was 0.00 nM. For the same molecule, the “time of peak brain drug concentrations” value (after oral administration) was “approximately 4 h”, the concentration at 0.5 h (male, C57BL/6, mouse, CSF, oral, 5 mg/kg, 5 mg/kg oral, time point 0.50 h, individual animals, read-out: CSF Conc.) was 3.44 nM and the concentration at 24 h (male, C57BL/6, mouse, CSF, oral, 5 mg/kg, 5 mg/kg oral, time point 24.00 h, individual animals, read-out: CSF Conc.) was 0 nM. It also gave a Kp at 0.25 h (male, C57BL/6, mouse, brain and CSF, 5 mg/kg oral, time point 0.25 h, read-out: Brain/CSF-Kp) of 13, a concentration at 0.25 h (male, C57BL/6, mouse, brain, oral, 5 mg/kg, 5 mg/kg oral, time point 0.25 h, individual animals, read-out: Brain Conc.) of 135 nM and a concentration at 0.25 h (male, C57BL/6, mouse, brain, oral, 5 mg/kg, 5 mg/kg oral, time point 0.25 h, read-out: Mean Brain Conc.) of 98.3 nM. The concentration at 0.5 h (male, C57BL/6, mouse, brain, oral, 5 mg/kg, 5 mg/kg oral, time point 0.50 h, individual animals, read-out: Brain Conc.) was 108 nM, the concentration at 0.5 h (male, C57BL/6, mouse, brain, oral, 5 mg/kg, 5 mg/kg oral, time point 0.50 h, read-out: Mean Brain Conc.) was 123 nM and the concentration at 1 h (male, C57BL/6, mouse, brain, oral, 5 mg/kg, 5 mg/kg oral, time point 1.00 h, individual animals, read-out: Brain Conc.) was 75.5 nM. The concentration at 1 h (male, C57BL/6, mouse, brain, oral, 5 mg/kg, 5 mg/kg oral, time point 1.00 h, read-out: Mean Brain Conc.) was 64.8 nM, the concentration at 2 h (male, C57BL/6, mouse, brain, oral, 5 mg/kg, 5 mg/kg oral, time point 2.00 h, read-out: Mean Brain Conc.) was 157 nM and the concentration at 4 h (male, C57BL/6, mouse, brain, oral, 5 mg/kg, 5 mg/kg oral, time point 4.00 h, read-out: Mean Brain Conc.) was 176 nM. The concentration at 8 h (male, C57BL/6, mouse, brain, oral, 5 mg/kg, 5 mg/kg oral, time point 8.00 h, individual animals, read-out: Brain Conc.) was 79.3 nM, the concentration at 8 h (male, C57BL/6, mouse, brain, oral, 5 mg/kg, 5 mg/kg oral, time point 8.00 h, read-out: Mean Brain Conc.) was 121 nM and the concentration at 24 h (male, C57BL/6, mouse, brain, oral, 5 mg/kg, 5 mg/kg oral, time point 24.00 h, read-out: Mean Brain Conc.) was 6.98 nM. It also gave a Kp at 0.5 h (male, C57BL/6, mouse, brain/CSF, 5 mg/kg oral, time point 0.50 h, read-out: Brain/CSF-Kp) of 35, a Kp at 1 h (male, C57BL/6, mouse, brain/CSF, 5 mg/kg oral, time point 1.00 h, read-out: Brain/CSF-Kp) of 13.1 and a Kp at 2 h (male, C57BL/6, mouse, brain/CSF, 5 mg/kg oral, time point 2.00 h, read-out: Brain/CSF-Kp) of 11.9. It also gave a Kp at 4 h (male, C57BL/6, mouse, brain/CSF, 5 mg/kg oral, time point 4.00 h, read-out: Brain/CSF-Kp) of 4.81, a Kp at 8 h (male, C57BL/6, mouse, brain/CSF, 5 mg/kg oral, time point 8.00 h, read-out: Brain/CSF-Kp) of 8.35 and a Kp at 0.25 h (male, C57BL/6, mouse, brain/plasma, 5 mg/kg oral, time point 0.25 h, read-out: B/P-Kp (brain to plasma ratio)) of 0.01. For the same molecule, the Kp at 0.5 h (male, C57BL/6, mouse, brain/plasma, 5 mg/kg oral, time point 0.50 h, read-out: B/P-Kp (brain to plasma ratio)) was 0.02, the Kp at 1 h (male, C57BL/6, mouse, brain/plasma, 5 mg/kg oral, time point 1.00 h, read-out: B/P-Kp (brain to plasma ratio)) was 0.01 and the Kp at 2 h (male, C57BL/6, mouse, brain/plasma, 5 mg/kg oral, time point 2.00 h, read-out: B/P-Kp (brain to plasma ratio)) was 0.02. For the same molecule, the Kp at 4 h (male, C57BL/6, mouse, brain/plasma, 5 mg/kg oral, time point 4.00 h, read-out: B/P-Kp (brain to plasma ratio)) was 0.02, the Kp at 8 h (male, C57BL/6, mouse, brain/plasma, 5 mg/kg oral, time point 8.00 h, read-out: B/P-Kp (brain to plasma ratio)) was 0.02 and the Kp at 24 h (male, C57BL/6, mouse, brain/plasma, 5 mg/kg oral, time point 24.00 h, read-out: B/P-Kp (brain to plasma ratio)) was 1.24. For the same molecule, the concentration at 0.25 h (male, C57BL/6, mouse, plasma, oral, 5 mg/kg, 5 mg/kg oral, time point 0.25 h, individual animals, read-out: Plasma Conc.) was 9590 nM, the concentration at 0.25 h (male, C57BL/6, mouse, plasma, oral, 5 mg/kg, 5 mg/kg oral, time point 0.25 h, read-out: Mean Plasma Conc.) was 8310 nM and the concentration at 0.5 h (male, C57BL/6, mouse, plasma, oral, 5 mg/kg, 5 mg/kg oral, time point 0.50 h, individual animals, read-out: Plasma Conc.) was 4650 nM. For the same molecule, the concentration at 0.5 h (male, C57BL/6, mouse, plasma, oral, 5 mg/kg, 5 mg/kg oral, time point 0.50 h, read-out: Mean Plasma Conc.) was 6510 nM, the concentration at 1 h (male, C57BL/6, mouse, plasma, oral, 5 mg/kg, 5 mg/kg oral, time point 1.00 h, individual animals, read-out: Plasma Conc.) was 7240 nM and the concentration at 1 h (male, C57BL/6, mouse, plasma, oral, 5 mg/kg, 5 mg/kg oral, time point 1.00 h, read-out: Mean Plasma Conc.) was 8390 nM. For the same molecule, the concentration at 2 h (male, C57BL/6, mouse, plasma, oral, 5 mg/kg, 5 mg/kg oral, time point 2.00 h, individual animals, read-out: Plasma Conc.) was 9730 nM, the concentration at 2 h (male, C57BL/6, mouse, plasma, oral, 5 mg/kg, 5 mg/kg oral, time point 2.00 h, read-out: Mean Plasma Conc.) was 7040 nM and the concentration at 4 h (male, C57BL/6, mouse, plasma, oral, 5 mg/kg, 5 mg/kg oral, time point 4.00 h, read-out: Mean Plasma Conc.) was 10600 nM. It also gave a concentration at 8 h (male, C57BL/6, mouse, plasma, oral, 5 mg/kg, 5 mg/kg oral, time point 8.00 h, read-out: Mean Plasma Conc.) of 5410 nM, a concentration at 24 h (male, C57BL/6, mouse, plasma, oral, 5 mg/kg, 5 mg/kg oral, time point 24.00 h, individual animals, read-out: Plasma Conc.) of 6.39 nM and a concentration at 24 h (male, C57BL/6, mouse, plasma, oral, 5 mg/kg, 5 mg/kg oral, time point 24.00 h, read-out: Mean Plasma Conc.) of 5.63 nM. It also gave an AUC(0-t) (male, C57BL/6, mouse, oral gavage 5 mg/kg, Brain) of 2.15 µM·h.
